Nc1nc2ccc(OC(F)(F)F)cc2s1
solubility (mole fraction)
Conditions | 278.15 K | 283.15 K | 288.15 K | 293.15 K | 298.15 K | 303.15 K | 308.15 K | 313.15 K | 318.15 K | 323.15 K
in acetone | 0.371 | 0.379 | 0.387 | 0.4 | 0.414 | 0.425 | 0.437 | 0.449 | 0.464 | 0.477
in ethanol | 0.179 | 0.188 | 0.198 | 0.212 | 0.223 | 0.236 | 0.255 | 0.273 | 0.294 | 0.308
in n-propanol | 0.179 | 0.189 | 0.202 | 0.215 | 0.23 | 0.249 | 0.267 | 0.287 | 0.312 | 0.333
